Measured values as given in US20100204151A1, “USE OF A PEPTIDE AS A THERAPEUTIC AGENT” (priority 2007, published 2010).

Tests used:
CEM-SS cells = assay: Cytotoxicity in the HIV-1 assay (MTS cell viability); conditions: test peptide 10 micrograms per ml
HIV-1IIIB = assay: HIV-1 antiviral assay (CPE reduction) in CEM-SS cells; assay type: cell-based; conditions: for antiviral activity of positive control compounds: HIV-1 assay validity statement; for % CPE reduction in HIV-1 infected CEM-SS cells: test peptide 10 micrograms per ml, 6 days post-infection, MTS
[1] = tested on: Primary Human endothelial cells (HUVEC); assay: Endothelial cell migration assay; assay type: cell-based; conditions: 10 micrograms per ml, 22 hours
MRSA = conditions: 5 micrograms per ml
A549 cells [2] = assay: Apoptosis induction assay (Annexin-5); assay type: cell-based, human; conditions: 10 micrograms per ml, 24 hours
From the text: Human A549 cells (carcinomic human alveolar basal epithelial cells) were utilized in the experiments employing the Annexin-5 apoptosis assay.

A549 cells [3] = assay: Propidium iodide cell cycle assay; assay type: cell-based, human; conditions: 10 micrograms per ml, 24 hours, propidium iodide FACS
Experimental: Human A549 cells (carcinomic human alveolar basal epithelial cells) were utilized in the experiments employing the Propidium iodide cell cycle assay. […] Propidium iodide is an intercalating agent and a fluorescent molecule that can be used to stain DNA. […] Thereafter, cells were pelleted at 1500 rpm for 5 min and resuspended in Propidium iodide solution in PBS. After incubation for 40 min at 37° C., cells were analyzed in the FACS.

A549 cells [4] = assay: Apoptosis prevention assay (C2 ceramide, Annexin-5); assay type: cell-based, human; conditions: 10 micrograms per ml, 30 min pretreatment, then C2 ceramide
[5] = Cytotoxicity in the HBV assay (dye uptake cell viability); assay type: cell-based; conditions: human, HepG2-2.2.15 cells, test peptide 10 micrograms per ml
in vitro [6] = conditions: human, MRC-5 cells (embryonal lung fibroblasts)
[7] = tested on: macrophages prepared from PBMC; assay: TNF alpha production assay (LPS-stimulated macrophages, ELISA); assay type: cell-based, human; conditions: 10 micrograms per ml, lipopolysaccharide 200 ng/ml, overnight
From the text: Not stimulated macrophages served as negative background control.

spleen cells = assay: Th1/Th2 cytokine profiling assay (Ovalbumin-restimulated spleen cells, CBA kit); assay type: cell-based, Balb/c mice; conditions: 10 micrograms per ml; Ovalbumin restimulation; 72 hours
Pseudomonas aeruginosa = assay type: cell-based; conditions: 5 micrograms per ml
[8] = tested on: Human Peripheral Blood Mononuclear Cells (PBMC); assay: T cell proliferation assay (PHA-stimulated PBMC, 3H-thymidine); conditions: 10 micrograms per ml, 3 days plus 12 hours 3H-thymidine
RAW 264.7 cells = assay: Phagocytosis assay (Fluorescein-labeled Escherichia coli, flow cytometry); assay type: cell-based, mouse; conditions: 10 micrograms per ml, 30 min preincubation, 60 min ingestion
HUVEC = assay: Endothelial tube formation assay; assay type: cell-based, human; conditions: 10 micrograms per ml, 20 hours
From the text: Positive control was vehicle only.

Streptococcus pneumoniae = assay type: cell-based; conditions: 5 micrograms per ml
in vitro [9] = conditions: human, CEM-SS cells
[10] = tested on: Human Peripheral Blood Mononuclear Cells (PBMC); assay: B cell proliferation assay (SAC plus Interleukin-2 stimulated PBMC, 3H-thymidine); assay type: cell-based; conditions: 10 micrograms per ml, 3 days plus 12 hours 3H-thymidine
HCMV strain AD169 = assay: HCMV plaque reduction assay in MRC-5 cells
[11] = tested on: hepatitis B virus (HBV) ayw strain; assay: HBV replication assay in HepG2-2.2.15 cells (TaqMan PCR of secreted HBV DNA); assay type: cell-based; conditions: test peptide 10 micrograms per ml; six days; HBV DNA in supernatant

Cc1cn([C@H]2C[C@H](N=[N+]=[N-])[C@@H](CO)O2)c(=O)[nH]c1=O [AZT]
% Cell viability (CEM-SS cells): 97% | antiviral activity of positive control compounds (HIV-1IIIB): expected levels of antiviral activity | % CPE reduction in HIV-1 infected CEM-SS cells (HIV-1IIIB): 99%

Ac-HWAVGHL-NH2 [Acetyl-GRP (20-26), Ac-His-Trp-Ala-Val-Gly-His-Leu-NH2]
% inhibition of migration [1]: 50% | % inhibition (MRSA): 0.0% | % of induction (A549 cells [2]): 1.1% | Cell cycle analysis G0/G1 (A549 cells [3]): 59.2 | Cell cycle analysis G2/M (A549 cells [3]): 9.6 | Cell cycle analysis S (A549 cells [3]): 31.2 | % prevention of ceramide induced apoptosis (A549 cells [4]): 0.0% | viability at 144 h, 10 micrograms per ml [5]: 95.3% | viability at 144 h (in vitro [6]): 100% | % of LPS induction [7]: 102.4% | IFNγ spleen cells; TH1 response (% of control) (spleen cells): 117.9 % of control | IL-2 spleen cells (% of control) (spleen cells): 202.7 % of control | IL-4 spleen cells; TH2 response (% of control) (spleen cells): 168.7 % of control | IL-5 spleen cells; TH2 response (% of control) (spleen cells): 102.5 % of control | TNF-a spleen cells; TH1 response (% of control) (spleen cells): 145.8 % of control | % inhibition (Pseudomonas aeruginosa): 0.0% | % of PHA induced control [8]: 97.5% | % of control phagocytosis (RAW 264.7 cells): 102.9% | % inhibition of tube formation (HUVEC): 24% | % inhibition (Streptococcus pneumoniae): 0.0% | viability at 10 micrograms per ml (in vitro [9]): 100% | % of SAC/IL2 induced control [10]: 123.6% | % CPE reduction in HIV-1 infected CEM-SS cells (HIV-1IIIB): 0.0% | % plaque reduction (HCMV strain AD169; HCMV in MRC-5 cells, peptide 10 micrograms per ml, 7-10 days): 3.2% | % inhibition of HBV replication in HEP G2 cells [11]: 47.8%

Nc1nc(O)c2ncn(COC(CO)CO)c2n1 [Ganciclovir, reference compound]
antiviral activity of positive control compound (HCMV strain AD169; HCMV assay validity statement): expected levels of antiviral activity

CC(C)(C)NC(=O)[C@@H]1CN(Cc2cccnc2)CCN1C[C@@H](O)C[C@@H](Cc1ccccc1)C(=O)N[C@H]1c2ccccc2C[C@H]1O [Indinavir, indinavir]
antiviral activity of positive control compounds (HIV-1IIIB): expected levels of antiviral activity
